Laboratory results taken from patent US8084196B2, “Method for the in vitro screening of anti-cancer compounds that inhibits SK3 activity, and said anti-cancer compounds” (priority 2006, dated 2011).

Tests used:
MDA-MB-435s cells [1] = type: cell-based, human; conditions: FIG. 4A; for number of migrating cells after siRNA transfection: MDA-MB-435s, 24, 48, 72 h after transfection
Protocol: Cells were seeded at 40000 in a cell culture insert in DMEM with 5% FBS±drugs or [K^+] 60 mM. […] 60 mM. After 24 h, cells of the lower compartment were stained with hematoxylin (A, bottom) and counted. The normalized cell number corresponded to the ratio of total number of migrating cells in presence of drug or [K^+] 60 mM/total number of migrating cells in control experiments. […] Scale bar=10 μm for the two panels.
(§1) Cell proliferation was determined using the tetrazolium salt reduction method, as described (Roger S, Potier M, Vandier C, Le Guennec J Y, Besson P. Description and role in proliferation of iberiotoxin-sensitive currents in different human mammary epithelial normal and cancerous cells. Biochim Biophys Acta 2004; 1667:190-9.). Cells were seeded on 24-well plates and grown for 48 h. […] Cell migration was analyzed in 24-well plates receiving 8-μm pore size polyethylene terephtalate membrane cell culture inserts (Becton Dickinson, France), as described (Roger S, Potier M, Vandier C, Le Guennec J Y, Besson P. Description and role in proliferation of iberiotoxin-sensitive currents in different human mammary epithelial normal and cancerous cells. Biochim Biophys Acta 2004; 1667:190-9.).

SK3 protein [2] = assay: Western blot of SK3 protein after siRNA transfection, MDA-MB-435s; type: cell-based, human; conditions: 24, 48, 72 h after transfection vs scrambled-siRNA, greatest effect at 72 hours
Sequence of SK3 protein (Q9UGI6 other isoform, or with tags, fused parts or gaps DUP76-80): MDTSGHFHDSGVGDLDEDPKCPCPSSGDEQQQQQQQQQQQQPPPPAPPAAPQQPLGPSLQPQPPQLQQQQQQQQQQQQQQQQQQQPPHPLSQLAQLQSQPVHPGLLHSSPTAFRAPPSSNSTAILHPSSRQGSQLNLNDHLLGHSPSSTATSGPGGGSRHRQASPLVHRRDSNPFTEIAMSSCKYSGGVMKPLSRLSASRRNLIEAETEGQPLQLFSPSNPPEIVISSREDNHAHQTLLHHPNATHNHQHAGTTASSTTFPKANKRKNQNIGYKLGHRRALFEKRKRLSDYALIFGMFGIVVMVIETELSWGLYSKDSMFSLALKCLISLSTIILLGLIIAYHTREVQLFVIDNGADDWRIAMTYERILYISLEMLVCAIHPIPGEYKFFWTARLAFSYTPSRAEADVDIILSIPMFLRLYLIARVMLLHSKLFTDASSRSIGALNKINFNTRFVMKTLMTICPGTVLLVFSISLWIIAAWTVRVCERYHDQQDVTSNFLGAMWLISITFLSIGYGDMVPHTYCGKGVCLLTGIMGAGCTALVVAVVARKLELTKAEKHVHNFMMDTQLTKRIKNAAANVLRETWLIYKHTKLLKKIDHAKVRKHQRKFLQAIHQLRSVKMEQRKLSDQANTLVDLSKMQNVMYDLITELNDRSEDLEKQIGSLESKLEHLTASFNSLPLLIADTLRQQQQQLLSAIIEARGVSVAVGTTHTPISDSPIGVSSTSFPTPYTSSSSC
Protocol: A—Top, Western blot patterns showing the silencing effect on the expression of SK3 protein—of two siRNAs designed against SK3 mRNA. Cells were transfected with siRNA-lipofectamine complexes for 24 h, 48 h and 72 h. A scrambled-siRNA was used as negative control. SiRNA oligonucleotide sequences are listed in the Materials and Methods section. Bottom, Histograms showing the inhibitory effect on […] cell migration after 24 h, 48 h and 72 h siRNA transfection with or without 10 nM apamin. Results from two separate experiments performed in triplicate are expressed as mean±S.E.M. Normalization of cell number performed as described in the legend of FIG. 1. Note that the cells have lost their sensitivity for apamin after siRNA transfection, indicating a specific effect on SK3 protein.
For Western blot experiments, proteins were electrotransferred onto polyvinylidene fluoride membranes which were incubated with antibodies directed against SK2 and SK3 proteins (1:1000) followed by incubation with a horseradish peroxidase-conjugated anti-rabbit IgG (1:5000; Tebu-Bio, France). Anti-SK2 directed against amino acids 542-559 and anti-SK3 directed against amino acids 2-21 (Sigma-Aldrich, France) were used for Western blot and immunocytochemical experiments. Anti-Actin directed against amino acids 20-33 (Sigma-Aldrich, France) was used for western blot loading control experiments. […]

518A2 cells = assay: Cell migration, 518A2 melanoma cells; type: cell-based; conditions: 518A2, 48 hours after transfection, FIG. 8B
Protocol: Histograms showing the effect of 10 nM apamin on cell migration (FIG. 5A). Cells were seeded at 40000 in a cell culture insert in DMEM with 5% FBS±apamin. The lower compartment of the insert contained DMEM with 10% FBS as a chemoattractant±apamin. After 24 h, cells of the lower side were stained with hematoxylin (FIG. 5B, right) and counted. The normalized cell number corresponded to the ratio of total number of migrating cells in presence of apamin/total number of migrating cells in control experiments. The apamin concentration selected has no effect on cell proliferation and viability. […] Mammary cancer MDA-MB-435s cells were used as control cell. […]
as §1, with “1667:190-9.).” for “1667:190-9.). Cells were seeded on 24-well plates and grown for 48 h.”

SK3 protein [3] = assay: Western blot of SK3 protein after siRNA transfection, 518A2; type: cell-based, human; conditions: 518A2, 48 hours after transfection vs scrambled-siRNA, FIG. 8A
Protocol: FIG. 8A—Western blot patterns showing the silencing effect on the expression of SK3 protein of two siRNAs designed against SK3 mRNA. Cells were transfected with siRNA-lipofectamine complexes for 48 h. A scrambled-siRNA was used as negative control. siRNA oligonucleotide sequences are listed in the Materials and Methods section.
For Western blot experiments, proteins were electrotransferred onto polyvinylidene fluoride membranes which were incubated with antibodies directed against SK2 and SK3 proteins (1:1000) followed by incubation with a horseradish peroxidase-conjugated anti-rabbit IgG (1:5000; Tebu-Bio, France). Anti-SK2 directed against amino acids 542-559 and anti-SK3 directed against amino acids 2-21 (Sigma-Aldrich, France) were used for Western blot and immunocytochemical experiments. Anti-Actin directed against amino acids 20-33 (Sigma-Aldrich, France) was used for western blot loading control experiments.
Two SK3 specific siRNA were designed: first set, hSK3-ex1-Sense 5′-GAAAGCGACUGAGUGACUAdTdT-3′ (sequence SEQ ID No. 5) and hSK3-ex1-Antisense 5′-UAGUCACUCAGUCGCUUCdTdT-3′, (sequence SEQ ID N 06) located in exon 1; second set, hSK3-ex3-Sense 5′-CCAUUCCUGGCGAGUACAAdTdT-3′ (sequence SEQ ID No. 7) and hSK3-ex3-Antisense 5′-UUGUACUCGCCAGGAAUGGdTdT-3′, (sequence SEQ ID No. 8) located in exon 3. […]

MDA-MB-435s cells [4] = type: cell-based, human; conditions: current-clamp, FIG. 2D
Protocol: D—Variations of membrane potential recorded in control conditions (PSS without drugs, n=11) and in presence of TEA (n=7), 4-AP (n=8) and TEA plus 4-AP (n=3). Membrane potential was measured in current-clamp mode (I=0) just after the disruption of the patch membrane.
(§2) Whole-cell potassium currents and intracellular Ca^2+ ([Ca^2+]i) measurements were recorded as described (Roger S, Potier M, Vandier C, Le Guennec J Y, Besson P. Description and role in proliferation of iberiotoxin-sensitive currents in different human mammary epithelial normal and cancerous cells. (Biochim Biophys Acta 2004; 1667:190-9.). Signals were captured using 1322-A Digidata converter (Axon Instruments, USA) and pClamp 8.1 software (Axon Instruments, USA). The analysis were performed using Clampfit 8.1 and Origin 7.0 softwares (Microcal Software, Northampton, Mass., USA).
(§3) The physiological saline solution (PSS) in mM: NaCl 140, MgCl2 1, KCl 4, CaCl2 2, D-glucose 11.1, and HEPES 10, adjusted to pH 7.4 with NaOH. The pipette solution for the whole-cell recording, pCa=7 was (in mM): K-glutamate 125, KCl 20, CaCl2 0.37, MgCl2 1, Mg-ATP 1, EGTA 1, HEPES 10, adjusted to pH 7.2 with KOH. […] All drugs and chemicals were purchased from Sigma-Aldrich (St Quentin, France), except Lei-Dab7 which was a generous gift from Dr. J. M. Sabatier, UMR CNRS 6560, Marseille, France.

MDA-MB-435s cells [5] = conditions: for decrease of outward currents: FIG. 2C
Protocol: Currents were generated by stepwise 8 mV depolarizing pulses (400 ms duration; 5 sec intervals) from a constant holding potential of −70 mV up to +58 mV. Signals were filtered at 1 kHz and digitized at 10 kHz.
B, C—Current-density was obtained by dividing the averaged steady-state current elicited at +26 mV (recorded during the latest 50 ms of the pulse) by the respective cell capacitance. Membrane capacitance was calculated by integrating the capacitive current measured during a 10 mV voltage step.
as §2, §3

SK3 = SK3 (Homo sapiens, UniProt Q9UGI6); conditions: apamin: low concentration (1 nM); cited from earlier work
Sequence of SK3 (Q9UGI6 whole entry): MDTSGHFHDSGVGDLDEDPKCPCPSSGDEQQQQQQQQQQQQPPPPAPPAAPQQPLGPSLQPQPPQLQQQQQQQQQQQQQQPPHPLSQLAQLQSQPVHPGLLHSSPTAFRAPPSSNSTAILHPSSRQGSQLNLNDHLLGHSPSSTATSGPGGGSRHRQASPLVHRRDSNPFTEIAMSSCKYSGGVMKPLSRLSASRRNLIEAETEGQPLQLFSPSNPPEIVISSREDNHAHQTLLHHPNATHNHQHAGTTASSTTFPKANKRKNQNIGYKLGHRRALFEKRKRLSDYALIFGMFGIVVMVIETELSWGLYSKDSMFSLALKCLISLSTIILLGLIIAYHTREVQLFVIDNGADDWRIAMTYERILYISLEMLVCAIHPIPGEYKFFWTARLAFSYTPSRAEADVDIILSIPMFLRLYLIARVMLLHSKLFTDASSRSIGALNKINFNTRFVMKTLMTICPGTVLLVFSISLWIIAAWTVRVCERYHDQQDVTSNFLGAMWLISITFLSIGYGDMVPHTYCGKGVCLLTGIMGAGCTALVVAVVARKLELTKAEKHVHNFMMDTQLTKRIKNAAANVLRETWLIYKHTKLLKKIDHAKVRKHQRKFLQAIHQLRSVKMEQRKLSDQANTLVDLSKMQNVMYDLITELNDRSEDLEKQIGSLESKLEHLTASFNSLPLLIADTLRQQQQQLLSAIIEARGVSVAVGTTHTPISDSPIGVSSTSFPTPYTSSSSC

SK2 = SK2 (Homo sapiens, UniProt Q9H2S1); conditions: apamin: low concentration (1 nM); cited from earlier work
Sequence of SK2 (Q9H2S1 whole entry): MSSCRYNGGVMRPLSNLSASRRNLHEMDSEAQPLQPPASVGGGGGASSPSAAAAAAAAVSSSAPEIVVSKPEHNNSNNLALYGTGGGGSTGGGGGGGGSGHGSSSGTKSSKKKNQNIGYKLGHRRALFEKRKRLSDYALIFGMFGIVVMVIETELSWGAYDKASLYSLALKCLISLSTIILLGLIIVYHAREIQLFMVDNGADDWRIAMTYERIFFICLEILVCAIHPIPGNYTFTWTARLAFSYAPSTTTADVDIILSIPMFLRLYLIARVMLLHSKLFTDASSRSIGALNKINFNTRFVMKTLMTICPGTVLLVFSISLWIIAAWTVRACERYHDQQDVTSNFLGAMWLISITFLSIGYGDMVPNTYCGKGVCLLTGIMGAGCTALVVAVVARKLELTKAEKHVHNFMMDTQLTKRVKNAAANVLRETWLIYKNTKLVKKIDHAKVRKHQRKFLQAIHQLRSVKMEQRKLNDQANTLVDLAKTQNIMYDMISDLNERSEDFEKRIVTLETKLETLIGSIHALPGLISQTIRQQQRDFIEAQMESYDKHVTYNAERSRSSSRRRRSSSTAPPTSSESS

Molecule	number of migrating cells after siRNA transfection (MDA-MB-435s cells [1])	SK3 expression (Western blot) (SK3 protein [2])	effect on membrane potential (MDA-MB-435s cells [4])	decrease of outward currents (MDA-MB-435s cells [5]) [%]	block of SK3 channel (SK3)	also measured
ΔExon1-siRNA: siRNA against SK3 exon 1, sense 5′-GAAAGCGACUGAGUGACUAdTdT-3′ (SEQ ID No. 5), antisense SEQ ID No. 6 (sense GAAAGCGACUGAGUGACUADTDT; antisense UAGUCACUCAGUCGCUUCDTDT; chemistry not fully specified)	markedly reduced	marked suppression				number of migrating cells after siRNA transfection (518A2 cells): markedly reduced; SK3 expression (Western blot) (SK3 protein [3]): decrease
CC[N+](CC)(CC)CC [TEA, tetraethylammonium]			depolarized	50	blocks	block of SK2 channel (SK2): blocks
Nc1ccncc1 [4-AP, 4-aminopyridine]			depolarized	50	blocks	
ΔExon3-siRNA: siRNA against SK3 exon 3, sense 5′-CCAUUCCUGGCGAGUACAAdTdT-3′ (SEQ ID No. 7), antisense SEQ ID No. 8 (sense CCAUUCCUGGCGAGUACAADTDT; antisense UUGUACUCGCCAGGAAUGGDTDT; chemistry not fully specified)	markedly reduced	marked suppression				relative efficiency of the siRNAs (Western blot and migration) (MDA-MB-435s cells [1]; MDA-MB-435s): more efficient than ΔExon1-siRNA
CC(C)C[C@@H]1NC(=O)[C@H](C)NC(=O)[C@H]([C@@H](C)O)NC(=O)[C@H](CCC(=O)O)NC(=O)[C@@H]2CCCN2C(=O)[C@H](C)NC(=O)[C@H](CCCCN)NC(=O)[C@@H]2CSSC[C@@H](C(=O)N[C@@H](CCC(N)=O)C(=O)N[C@@H](CCC(N)=O)C(=O)N[C@@H](Cc3cnc[nH]3)C(N)=O)NC(=O)[C@H](CCCNC(=N)N)NC(=O)[C@H](CCCNC(=N)N)NC(=O)[C@H](C)NC(=O)[C@H](CSSC[C@H](N)C(=O)N[C@@H](CC(N)=O)C(=O)N2)NC1=O [apamin]						IC50 (MDA-MB-435s cells [5]; read-out: estimated IC50 of block of outward currents, whole-cell, dose-dependent, FIG. 2B): < 0.1 nM
